Reference: US20060252800A1, “Anti-leishmania agent” (priority 2003, published 2006)

Test system: Leishmania (L. major)
Test: Leishmania protozoa proliferation inhibition assay
Type: cell-based
Details: for OD level (number of viable Leishmania protozoa): 48 hours at 27° C., absorbance 450 nm minus 630 nm; for IC50: calculated from the graphs of FIGS. 1 to 4 (concentration vs number of viable leishmania protozoa), read-out: Concentration inhibiting 50% leishmania proliferation
Description: After dissolving each of the obtained compounds in dimethylsulfoxide (hereinafter referred to as DMSO), the resultant was diluted by 9 steps in Medium 199 medium (Invitrogen) to the indicated concentration, filtrated with a membrane filter, and each of the filtration was made as a sample solution. […] By keeping the solution at 27° C., incubation was performed under 5% CO2, for 48 hours. Then, TetraColor ONE (tradename: Seikagaku Corporation) reagent was added thereto and further incubated for 6 hours. Then, the absorbance at a wavelength of 450 nm was measured for the 96-well microtiter plate with a microplate reader, the wave length of 630 nm was made as reference wave length, and in order to exclude background effect, the absorbance at 630 nm was excluded from the one at 450 nm, and the OD level was calculated as a level to indicate the number of viable Leishmania protozoa. The assay was performed by three wells at a time for each concentration of each sample, and the mean level was made as OD level. […] Amphotericin B was used as positive control. […] Inhibiting effect against […] protozoa for each sample was similar or more compared with that of Amtephotericin B.

[1] = Table 1, sample concentration 0.001 mg/ml
[2] = Table 1, sample concentration 0.016384 mg/ml
[3] = Table 1, sample concentration 0.04096 mg/ml
[4] = Table 1, sample concentration 0.1024 mg/ml
[5] = Table 1, sample concentration 0.256 mg/ml
[6] = Table 1, sample concentration 0.64 mg/ml
[7] = Table 1, sample concentration 1.6 mg/ml
[8] = Table 1, sample concentration 4 mg/ml
[9] = Table 1, sample concentration 10 mg/ml
[10] = Table 1, sample concentration 25 mg/ml, mean of three wells
[11] = Table 3, sample concentration 0.001 mg/ml
[12] = Table 3, sample concentration 0.002165 mg/ml
[13] = Table 3, sample concentration 0.0072171 mg/ml
[14] = Table 3, sample concentration 0.02406 mg/ml
[15] = Table 3, sample concentration 0.08019 mg/ml
[16] = Table 3, sample concentration 0.2673 mg/ml
[17] = Table 3, sample concentration 0.891 mg/ml
[18] = Table 3, sample concentration 2.97 mg/ml
[19] = Table 3, sample concentration 9.9 mg/ml
[20] = Table 3, sample concentration 33 mg/ml

Structure (SMILES) | OD level (number of viable Leishmania protozoa) [1] | OD level (number of viable Leishmania protozoa) [2] | OD level (number of viable Leishmania protozoa) [3] | OD level (number of viable Leishmania protozoa) [4] | OD level (number of viable Leishmania protozoa) [5] | OD level (number of viable Leishmania protozoa) [6] | OD level (number of viable Leishmania protozoa) [7] | OD level (number of viable Leishmania protozoa) [8] | OD level (number of viable Leishmania protozoa) [9] | OD level (number of viable Leishmania protozoa) [10] | IC50 [µM] | OD level (number of viable Leishmania protozoa) [11] | OD level (number of viable Leishmania protozoa) [12] | OD level (number of viable Leishmania protozoa) [13] | OD level (number of viable Leishmania protozoa) [14] | OD level (number of viable Leishmania protozoa) [15] | OD level (number of viable Leishmania protozoa) [16] | OD level (number of viable Leishmania protozoa) [17] | OD level (number of viable Leishmania protozoa) [18] | OD level (number of viable Leishmania protozoa) [19] | also measured
CCn1c(=Cc2sc3ccccc3[n+]2CC)sc(=c2sc(=C3Sc4ccccc4N3C)c(=O)n2CC)c1=O.[Br-] [IV (e), 2-[[5-{5′-(3″-methyl-2″ (3″H)-benzothiazolylidene)-4′-oxo-3′-ethyl-2′-thiazolidinylidene)-4-oxo-3-ethyl-2-thiazolidinylidene]methyl]-3-ethylbenzothiazolium=bromide] | 0.463 | 0.445 | 0.220 | 0.159 | 0.056 | 0.035 | 0.030 | 0.030 | 0.032 | 0.033 | 0.061 |  |  |  |  |  |  |  |  |  | 
CCn1c(=Cc2cccc[n+]2C)sc(=C2Sc3ccc(Cl)cc3N2C)c1=O.Cc1ccc(S(=O)(=O)[O-])cc1 [IV (f), 2-[{5-(5-chloro-3-methyl-2(3H)-benzothiazolylidene)-4-oxo-3-ethyl-2-thiazolidinylidene}methyl]-1-methylpyridinium=p-toluenesulfonate] |  |  |  |  |  |  |  |  |  |  | 0.54 | 0.352 | 0.388 | 0.369 | 0.384 | 0.428 | 0.214 | 0.116 | 0.081 | 0.064 | OD level (number of viable Leishmania protozoa) [20]: 0.038
CCn1c(=Cc2sc3ccc4ccccc4c3[n+]2C)sc(=C2Sc3ccccc3N2C)c1=O.Cc1ccc(S(=O)(=O)[O-])cc1 [IV (g), 2-[{5-(3-methyl-2(3H)-benzothiazolylidene)-4-oxo-3-ethyl-2-thiazolidinylidene}methyl]-3-methylbenzo[e]benzothiazolium=p-toluenesulfonate] |  |  |  |  |  |  |  |  |  |  | 0.012 |  |  |  |  |  |  |  |  |  | OD level (number of viable Leishmania protozoa) (Table 2, sample concentration 0.0001 mg/ml): 0.352; OD level (number of viable Leishmania protozoa) (Table 2, sample concentration 0.0007 mg/ml): 0.368; OD level (number of viable Leishmania protozoa) (Table 2, sample concentration 0.002 mg/ml): 0.253; OD level (number of viable Leishmania protozoa) (Table 2, sample concentration 0.008 mg/ml): 0.121; OD level (number of viable Leishmania protozoa) (Table 2, sample concentration 0.025 mg/ml): 0.055; OD level (number of viable Leishmania protozoa) (Table 2, sample concentration 0.084 mg/ml): 0.032; OD level (number of viable Leishmania protozoa) (Table 2, sample concentration 0.279 mg/ml): 0.030; OD level (number of viable Leishmania protozoa) (Table 2, sample concentration 0.93 mg/ml): 0.031; OD level (number of viable Leishmania protozoa) (Table 2, sample concentration 3.1 mg/ml): 0.029; OD level (number of viable Leishmania protozoa) (Table 2, sample concentration 2E−04 mg/ml): 0.448
C=CCn1c(=Cc2cccc[n+]2C)sc(=C2Sc3ccc(Cl)cc3N2C)c1=O.Cc1ccc(S(=O)(=O)[O-])cc1 [IV (h), 2-[{5-(5-chloro-3-methyl-2(3H)-benzothiazolylidene)-4-oxo-3-(2-propenyl)-2-thiazolidinylidene}methyl]-1-methylpyridinium=p-toluenesulfonate] |  |  |  |  |  |  |  |  |  |  | 0.27 | 0.352 | 0.368 | 0.375 | 0.423 | 0.277 | 0.140 | 0.079 | 0.039 | 0.029 | OD level (number of viable Leishmania protozoa) [20]: 0.034
CCn1c(=Cc2cccc[n+]2CC)sc(=C2Sc3ccccc3N2C)c1=O.[Cl-] [IV (i), 2-[{5-(3-methyl-2(3H)-benzothiazolylidene)-4-oxo-3-ethyl-2-thiazolidinylidene}methyl]-1-ethylpyridinium=chloride] | 0.451 | 0.504 | 0.482 | 0.478 | 0.153 | 0.086 | 0.039 | 0.033 | 0.030 | 0.026 | 0.46 |  |  |  |  |  |  |  |  |  | 
